This note sets out measurements from US8354455B2, “Prodrugs containing novel bio-cleavable linkers” (Piramal Enterprises Limited and Apparao Satyam, priority 2004, dated 2013).

Read-outs that look alike come from different tables or passages of the source. Marks after values point to notes of the source that are not given here.

For series [1], the system named is MES-induced seizures. Kind of series: Maximal Electroshock Test (MES), Test 1, mice i.p. Type of series: in vivo. The following applies: for activity in MES model (in words): Test 1, mice i.p. On the technique in general: The maximal electroshock test induces tonic seizures with an electrical stimulus.
Series [2] relates to convulsant metrazol. Kind of series: Subcutaneous Metrazol Seizure Threshold Test (scMET), Test 1, mice i.p. Type of series: in vivo. As to conditions: Mus musculus, ip, symbol = dose with activity.
For series [3], the system named is MES-induced seizures. Kind of series: animal or person. The class given is in vivo, rats. As to conditions: for ED50: Rattus norvegicus, po, MES model, at time of peak effect.
Series [4] concerns convulsant metrazol. Kind of series: scMET, rats p.o. (Test 3). The following applies: Test 3, rats p.o. The class given is in vivo. Here is the method: Subcutaneous Metrazol Seizure Threshold Test (scMET): Subcutaneous injection of the convulsant metrazol produces clonic seizures in laboratory animals. […] Animals were pretreated with various doses of the test compound given by i.p. injection. At the previously determined Time to Peak Effect (TPE) of the test compound, the dose of metrazol which will produce convulsions in 97% of animals (CD97: 85 mg/kg in mice) was injected into a loose fold of skin in the midline of the neck. The animals were placed in isolation cages to minimize stress and observed for the next 30 minutes for the presence or absence of a seizure. An episode of clonic spasms, approximately […], of the fore and/or hind limbs, jaws, or vibrissae is taken as the end point.
Rats received test compounds orally.

The next series concerns mice. The following applies: for toxicity (in words): Test 1, mice i.p.; for Rotorod Toxicity 0.5 h / Rotorod Toxicity 4.0 h: mice, i.p., symbol = dose with toxicity.
The subject of series [5] is rats. Kind of series: Neurotoxicity, rats p.o. (Test 2 and Test 3).
Excerpt: Acute Toxicity—Minimal Motor Impairment (MMI): To assess a compound's undesirable side effects (toxicity), animals were monitored for overt signs of impaired neurological or muscular function.
Groups of at least 8 rats received various doses of the candidate compound until at least two points were established between the limits of 100 percent protection or toxicity and zero percent protection or minimal toxicity. The 95 percent confidence limits, slopes of the regression lines and standard errors of the slopes were calculated for each quantitative determination. Rats received test compounds orally.
This secondary evaluation determines the time to peak effect (TPE), neurotoxicity, median effective dose (ED50) and biological response.
Series [6] can be described thus: In vitro plasma stability. Type of series: in vitro ADME. The following applies: rat plasma, 37° C., 30 minutes incubation, HPLC.
Excerpt: The compounds were extracted back into acetonitrile with rigorous vortex.
Series [7] has as its system carrageenan-induced rat paw edema. Kind of series: Carrageenan-induced rat paw edema. The class given is in vivo. The following applies: 75 mg/kg equivalent dose of aspirin, p.o. On the technique in general: The carrageenan paw model is a standard test of acute inflammation.
The subject of series [8] is rats. As to conditions: rat, in vivo, po.
For series [9] the following is noted: rat, in vivo, po.
Setting [10] is: 0.5 h, read-out: ScMET 0.5 h, mice, i.p., 0.5 h.
The mark [11] stands for this setting: 4 h, read-out: ScMET 4.0 h, mice, i.p., 4.0 h.
Where [12] appears, read: Test 2, rats p.o., 30 mg/kg, 0.50 h.
Where [13] appears, read: Test 2, rats p.o., 30 mg/kg, 1.00 h.
Setting [14] is: Test 2, rats p.o., 30 mg/kg, 2.00 h.
[15] abbreviates: Test 2, rats p.o., 30 mg/kg, 4.00 h.
Setting [16] is: Test 3 time to peak effect, rats p.o., 30 mg/kg, 0.5 h.
[17] abbreviates: Test 3 time to peak effect, rats p.o., 30 mg/kg, 1.0 h.
Setting [18] is: Test 3 time to peak effect, rats p.o., 30 mg/kg, 2.0 h.
The mark [19] stands for this setting: Test 3 time to peak effect, rats p.o., 30 mg/kg, 4.0 h.

As a reminder, the ED50 is the dose that gives a 50% effect, or the effect in half of the subjects.

As for `Nc1nc(NC(=O)OCCSSCCO)nnc1-c1cccc(Cl)c1Cl` [I-A1-PD4], the “activity in MES model (in words)” value with MES-induced seizures [1] was “active in MES”. The “MES (number of animal protected/number of animal tested)” value with MES-induced seizures [1] (mice, i.p., 0.5 h, 100 mg/kg (++)) was “(1/7)”; in the series with MES-induced seizures [1] (mice, i.p., 0.5 h, 300 mg/kg (+)), “(2/5)”; in the series with MES-induced seizures [1] (mice, i.p., 4.0 h, 30 mg/kg (+++)) it was “(1/1)”; with MES-induced seizures [1] (mice, i.p., 4.0 h, 100 mg/kg (++)), “(3/3)”; in the series on MES-induced seizures [1] (mice, i.p., 4.0 h, 300 mg/kg (+)), “(1/1)”; in the series with MES-induced seizures [3] (setting [12]), 0/4. Moreover, the “MES (number of animal protected/number of animal tested)” value is listed as 1/4 in the series on MES-induced seizures [3] (setting [13]); 3/4 with MES-induced seizures [3] (setting [14]); 4/4 in the series with MES-induced seizures [3] (setting [15]); 0/8 in the series with MES-induced seizures [3] (Test 3 ED50 quantification, rats p.o., 4 h, 1.9 mg/kg); 4/8 with MES-induced seizures [3] (Test 3 ED50 quantification, rats p.o., 4 h, 3.8 mg/kg); 4/8 with MES-induced seizures [3] (Test 3 ED50 quantification, rats p.o., 4 h, 7.5 mg/kg). Moreover, the “MES (number of animal protected/number of animal tested)” value with MES-induced seizures [3] (Test 3 ED50 quantification, rats p.o., 4 h, 15 mg/kg) is reported as 7/8; in the series on MES-induced seizures [3] (Test 3 ED50 quantification, rats p.o., 4 h, 30 mg/kg), 7/8; in the series on MES-induced seizures [3] (Test 3 time to peak effect, rats p.o., 10 mg/kg, 4.0 h) it was 4/4; in the series on MES-induced seizures [3] (Test 3 time to peak effect, rats p.o., 10 mg/kg, 6.0 h), 3/4; with MES-induced seizures [3] (Test 3 time to peak effect, rats p.o., 10 mg/kg, 8.0 h), 2/4; in the series with MES-induced seizures [3] (Test 3 time to peak effect, rats p.o., 10 mg/kg, 24 h) it was 0/4. Moreover, the “MES (number of animal protected/number of animal tested)” value in the series with MES-induced seizures [3] (Test 3 time to peak effect, rats p.o., 30 mg/kg, 0.25 h) is recorded as 2/4; in the series with MES-induced seizures [3] (setting [16]), 2/4; in the series with MES-induced seizures [3] (setting [17]), 2/4; in the series with MES-induced seizures [3] (setting [18]) it was 2/4; in the series on MES-induced seizures [3] (setting [19]), 4/4. Also, the minimal effective dose with convulsant metrazol [2] (setting [10]) and in the series on convulsant metrazol [2] (setting [11]) was greater than 300 mg/kg each time. For the same molecule, it took a dose of 6.55 mg/kg to reach the 50% effect level in the series with MES-induced seizures [3] (rats p.o.) (ED50). Besides, the “ScMET (50 mg/kg) (number of animal protected/number of animal tested)” value in the series on convulsant metrazol [4] (0.25 h) is 1/4^f; in the series with convulsant metrazol [4] (0.5 h), 0/4; in the series with convulsant metrazol [4] (1.0 h) it was 2/4; in the series with convulsant metrazol [4] (2.0 h), 1/4^g; in the series on convulsant metrazol [4] (4.0 h), 0/4. For the same molecule, in the series on mice, the “toxicity (in words)” value is reported as “no or mild toxicity”. Further, in the series with mice, the “Rotorod Toxicity 0.5 h” value was “— (— = no activity or no toxicity at 300 mg/kg)”. Also, the “Rotorod Toxicity 4.0 h” value with mice is recorded as “— (— = no activity or no toxicity at 300 mg/kg)”. For the same molecule, the “Toxicity (number of animals exhibiting toxicity/number of animals tested)” value with rats [5] (setting [12]) is 0/4; with rats [5] (setting [13]), 0/4; in the series with rats [5] (setting [14]), 0/4; in the series with rats [5] (setting [15]), 0/4; in the series with rats [5] (Test 3, rats p.o., 100 mg/kg, 0.25 h), 0/4 (100); in the series with rats [5] (Test 3, rats p.o., 100 mg/kg, 0.5 h) it was 0/4 (100). The “Toxicity (number of animals exhibiting toxicity/number of animals tested)” value in the series on rats [5] (Test 3, rats p.o., 100 mg/kg, 1.0 h) is 0/4 (100); in the series on rats [5] (Test 3, rats p.o., 100 mg/kg, 2.0 h) it was 0/4 (100).

On to `CCOC(=O)CC1(CNC(=O)OCCSSCCOC(=O)Nc2nnc(-c3cccc(Cl)c3Cl)c(N)n2)CCCCC1` [I-AA-MPD12], for which the minimal effective dose in the series on MES-induced seizures [1] (Mus musculus, ip, 0.5 h, read-out: MES 0.5 h, mice, i.p., 0.5 h, symbol = dose with activity) was greater than 300 mg/kg; in the series with convulsant metrazol [2] (setting [10]) it was greater than 300 mg/kg; with convulsant metrazol [2] (setting [11]) it was greater than 300 mg/kg. In the series on MES-induced seizures [1], the “activity in MES model (in words)” value is “active in MES”. Besides, the “MES, at 6 hours after dosing” value with MES-induced seizures [1] (mice, i.p., 6 h (footnotes g, m; printed in 4.0 h column)) is listed as “++ (++ = activity or toxicity at 100 mg/kg)”. Moreover, the ED50 in the series with MES-induced seizures [3] (rats p.o.) stood at 17.1 mg/kg. The “MES (number of animal protected/number of animal tested)” value in the series with MES-induced seizures [3] (setting [13]) is 0/4; in the series with MES-induced seizures [3] (Test 3 ED50 quantification, rats p.o., 6 h, 60 mg/kg), 7/8; with MES-induced seizures [3] (Test 3 time to peak effect, rats p.o., 15 mg/kg, 8.0 h), 1/4; in the series with MES-induced seizures [3] (setting [16]), 0/4; in the series with MES-induced seizures [3] (setting [17]), 0/4; in the series with MES-induced seizures [3] (setting [18]), 1/4. Besides, the “MES (number of animal protected/number of animal tested)” value with MES-induced seizures [3] (setting [19]) is on record as 3/4; in the series with MES-induced seizures [3] (Test 3 time to peak effect, rats p.o., 30 mg/kg, 8.0 h), 4/4; in the series with MES-induced seizures [3] (Test 3 time to peak effect, rats p.o., 30 mg/kg, 24 h), 2/4. Besides, the “ScMET (50 mg/kg) (number of animal protected/number of animal tested)” value in the series with convulsant metrazol [4] (1.0 h) was 1/4; in the series on convulsant metrazol [4] (2.0 h), 0/4; in the series with convulsant metrazol [4] (4.0 h) it was 0/4; with convulsant metrazol [4] (6.0 h), 1/4; with convulsant metrazol [4] (8.0 h), 2/4; with convulsant metrazol [4] (24 h) it was 0/4. Besides, the “toxicity (in words)” value with mice is listed as “no or mild toxicity”. The “Rotorod Toxicity 0.5 h” value with mice is listed as “— (— = no activity or no toxicity at 300 mg/kg)”. Also, the “Rotorod Toxicity 4.0 h” value with mice was “— (— = no activity or no toxicity at 300 mg/kg)”. Besides, the “Toxicity (number of animals exhibiting toxicity/number of animals tested)” value with rats [5] (setting [13]) was 0/4; with rats [5] (setting [14]) it was 0/4; in the series on rats [5] (setting [15]), 0/4; in the series on rats [5] (Test 3, rats p.o., 50 mg/kg, 1.0 h), 0/4 (50); with rats [5] (Test 3, rats p.o., 50 mg/kg, 2.0 h), 0/4 (50); with rats [5] (Test 3, rats p.o., 50 mg/kg, 4.0 h) it was 0/4 (50). Moreover, the “Toxicity (number of animals exhibiting toxicity/number of animals tested)” value is given as 0/4 (50) in the series on rats [5] (Test 3, rats p.o., 50 mg/kg, 6.0 h); 0/4 (50) with rats [5] (Test 3, rats p.o., 50 mg/kg, 8.0 h); 0/4 (50) with rats [5] (Test 3, rats p.o., 50 mg/kg, 24 h).

For `CC(=O)Oc1ccccc1C(=O)NC(=O)OCCSSCCO[N+](=O)[O-]` [I-C1-NOPD5A], in [6], the “release of parent drug / conversion to salicylate (in words)” value is given as “converting to the expected metabolite (salicylate)”. In addition, in series [7], the “anti-inflammatory activity (in words)” value was “negligible anti-inflammatory activity”. Also, the “ulcers (in words)” value with rats [8] (200 mg/kg) was “none of the animals treated with the test compounds showed any signs of development of ulcers”.

As to `CC(=O)Oc1ccccc1C(=O)[N-]C(=O)OCCSSCCO[N+](=O)[O-].[Na+]` [I-C1-NOPD5B], the “bioavailability compared with parent drug (in words)” value in series [9] was “as bioavailable as its parent drug”. The “ulcers (in words)” value in the series with rats [8] (200 mg/kg) was “none of the animals treated with the test compounds showed any signs of development of ulcers”.

In the case of `CC(=O)Oc1ccccc1C(=O)NCCSSCCO[N+](=O)[O-]` [I-C1-NOPD6], the “prodrug or salicylate found in plasma (in words)” value in series [9] (35 mg/kg) is listed as “neither the prodrug nor the salicylate was found in the plasma”. Moreover, in the series with rats [8] (100 mg/kg), the “ulcers (in words)” value is on record as “none of the animals treated with the test compounds showed any signs of development of ulcers”.
